Values of other authors, collected in patent US6939965B2, “Process of manufacture of 1,3-oxathiolane nucleosides using titanium trichloride mono-isopropoxide” (Gilead Sciences, Inc., priority 1998, dated 2005).

What was measured:
HIV [1] = settings: racemic mixture, compared with AZT
HIV [2] = system: HIV

Nc1ccn(C2CSC(CO)O2)c(=O)n1 (racemic) [BCH-189, 2-hydroxymethyl-5-(cytosin-1-yl)-1,3-oxathiolane]
activity against HIV relative to AZT (HIV [1]): approximately the sane activity against HIV as AZT

Nc1nc(=O)n([C@@H]2CS[C@H](CO)O2)cc1F (relative stereo) [FTC, cis-2-hydroxymethyl-5-(5-fluorocytosin-1-yl)-1,3-oxathiolane]
HIV activity (HIV [2]): potent HIV activity
